Where “and” joins values, the source holds several entries; their conditions need not be identical. Equal values may be shown once. Read-outs that look alike come from different tables or passages of the source.
Test system: panel of 66 cancer cell lines
Experiment: cancer cell line screen, proliferation assay (ATPlite, 72 h)
Assay type: cell-based, human
Conditions: for raw signal, dose-response (Figure S7a): rep1, rep2, listed as AVX420; for IC50: Homo sapiens
Source text: Targeting specific molecular vulnerabilities in cancer is considered a key approach to reducing the adverse effects of chemotherapy. However, the events that govern the susceptibility to suppression of the cPLA2α in cancer remain largely unexplored. We therefore took the approach of screening the antiproliferative activity of AVX420 in a panel of 66 cancer cell lines (hereafter referred to as the cancer cell line screen or CCLS) to allow us to investigate molecular and genetic vulnerabilities to the drug.
Screening of compound activities in 66 cancer cell lines was carried out at the Netherlands Translation Research Center. Briefly, proliferation assays were performed 72 h after compound addition using ATPlite 1step reagent (Perkin Elmer). IC50s calculated by non-linear regression analysis were used as a measure of compound activity for investigating associations with genetic factors. A complete description of the laboratory and data analysis methods are available in the Supplementary Information file (Supplemental Methods: Cancer Cell Line Screening).
Cancer cell line screening
Cell proliferation assays
All cell lines were from the American Type Culture Collection (ATCC) Manassas, Virginia (US) and maintained under ATCC-recommended protocols and within 9 pas- […]
DMSO at -80°C until one hour before use. Cells exposed within one hour after thaw-ing of the compound stocks. Final compound concentration range in the assay was 10 […]
cated by supplier. Compounds were dissolved in 100 % DMSO and stored at room temperature. Final concentration of the reference compounds in the assay was 3.16x10-5 M to 3.16x10-9 M. The final DMSO concentration during incubation was […]
Cell lines were plated in Advanced RPMI 1640 (Gibco, ref 12633-012) cell culture medium, containing 1% Glutamax solution (Gibco, ref 35050-038), 0.4% Pen Strep solution (Gibco, ref 15140-122) and bovine serum. The cPLA2α inhibitors were tested in 0.5% bovine serum (HyClone, ref SH30072.03) with the exception of769-P, A-204, BT-549, SR, T98G, which were tested in the presence of 1.0% serum and A-704 and LNCaP FGS, which were tested in the in the presence of 10% serum. Reference com-pounds were all tested in the presence of 10% bovine serum.
Cells were dispensed in a 384-well plate, at a concentration of 200 - 3200 cells per well, depending on the cell line, in 45 μL medium. Plated cells were incubated in a humidified atmosphere of 5% CO2 at 37 °C. After 24 hours, 5 μL of compound dilu-tion was added and plates were further incubated for another 72 hours. After 72 hours, 25 μL of ATPlite 1Step™ (PerkinElmer) solution was added to each well, and subse-quently shaken for 2 minutes. After 10 minutes of incubation in the dark, the lumines-cence was recorded on an Envision multimode reader (PerkinElmer).
Cell growth control. The cellular doubling times of all cell lines are calculated from the t = 0 hours and t = 72 hours growth signals of the untreated cells. If the doubling time is out of specification (0.5 – 2.0 times deviating from historic average) the assay […]
IC50s were calculated by non-linear regression using IDBS XLfit 5. The percentage growth after 72h (%-growth) was calculated as follows: 100% x (luminescence t = 72h / luminescence untreated,t=72h). This was fitted to the 10log compound concentration (conc) by a 4-parameter logistics curve: %-growth = bottom + (top – bottom) / (1+ 10(logIC50 – conc)*hill)), where hill is the Hill-coefficient, and bottom and top the asymptotic mini-mum and maximum cell growth that the compound allows in that assay.
All analysis were performed in the statistical software package R and visualized using GraphPad Prism version 10.0 .0

CCCCCCCOc1ccc(OCC(=O)c2nc(C(=O)OC)cs2)cc1 [GK420]
average panel 10logIC50 (10log of IC50 in nM, panel average): 4.17
pIC50 (769P, kidney): 4,561
pIC50 (786O, kidney): 4,867
pIC50 (A172, central_nervous_system): 4,692
pIC50 (A204, soft_tissue): 4,646
pIC50 (A375, skin): 4,764
pIC50 (A388, cervix): 4,776
pIC50 (A427, lung): 4,923
pIC50 (A498, kidney): 4,615
pIC50 (A549, lung): 4,624
pIC50 (ACHN, kidney): 4,799
pIC50 (AN3CA, endometrium): 4,941
pIC50 (AU565, breast): 4,836
pIC50 (AsPC1, pancreas): 4,597
pIC50 (BT20, breast): 4,474
pIC50 (BT549, breast): 4,818
pIC50 (BxPC3, pancreas): 4,715
pIC50 (CAL27, upper_aerodigestive_tract): 4,804
raw signal, dose-response (Figure S7a) (CCRF-CEM, Log10 M -4): 5160 and 4973
raw signal, dose-response (Figure S7a) (CCRF-CEM, Log10 M -4.5): 1680 and 1133
raw signal, dose-response (Figure S7a) (CCRF-CEM, Log10 M -6): 1223867 and 1721613
raw signal, dose-response (Figure S7a) (CCRF-CEM, Log10 M -6.5): 5260280 and 5359267
raw signal, dose-response (Figure S7a) (CCRF-CEM, Log10 M -7): 5505373 and 6147053
raw signal, dose-response (Figure S7a) (CCRF-CEM, Log10 M -7.5): 5656213 and 5825533
raw signal, dose-response (Figure S7a) (CCRF-CEM, Log10 M -8): 5419560 and 5847920
pIC50 (COLO829, unknown): 4,761
pIC50 (Daoy, central_nervous_system): 4,867
pIC50 (DoTc24510, cervix): 4,743
pIC50 (HCT15, large_intestine): 4,945
pIC50 (HCT116, large_intestine): 4,795
IC50 (769-P, read-out: IC50): 27.5 µM
IC50 (786-0, 786-O, read-out: IC50): 13.6 µM
IC50 (72 h, panel average, 72 h, read-out: average IC50 in the cancer cell line screen): 18.4 µM
IC50 (A 172, A-172, read-out: IC50): 20.3 µM
IC50 (A204, A-204, read-out: IC50): 22.6 µM
IC50 (A388, read-out: IC50): 16.8 µM
IC50 (A498, A-498, read-out: IC50): 24.3 µM
IC50 (A549, A-549, read-out: IC50): 23.8 µM
IC50 (A704, A704, kidney, read-out: pIC50 (converted)): 34 µM
IC50 (A704, A-704, read-out: IC50): > 100 µM
IC50 (A-375, A375, read-out: IC50): 17.2 µM
IC50 (A-427, A-427, read-out: IC50): 11.9 µM
IC50 (ACHN, read-out: IC50): 15.9 µM
IC50 (AN3-CA, AN3 CA, read-out: IC50): 11.4 µM
IC50 (ASPC1, AsPC-1, read-out: IC50): 25.3 µM
IC50 (AU565, AU-565, read-out: IC50): 14.6 µM
IC50 (BT-20, BT-20, read-out: IC50): 33.6 µM
IC50 (BT-549, BT-549, read-out: IC50): 15.2 µM
IC50 (BXPC-3, BxPC-3, read-out: IC50): 19.3 µM
IC50 (C-33-A, C33A, cervix, read-out: pIC50 (converted)): 1.74 µM
IC50 (C-33-A, C-33 A, read-out: IC50): 1.74 µM
IC50 (CAL-27, CAL 27, read-out: IC50): 15.7 µM
IC50 (CCRF-CEM, CCRFCEM, blood, read-out: pIC50 (converted)): 0.708 µM
IC50 (CCRF-CEM, read-out: IC50): 0.708 µM
IC50 (COLO 205, COLO 205, read-out: IC50): 22.3 µM
IC50 (COLO-829, COLO 829, read-out: IC50): 17.3 µM
IC50 (DLD-1, DLD1, large_intestine, read-out: pIC50 (converted)): 13.8 µM
IC50 (DLD-1, DLD-1, read-out: IC50): 13.8 µM
IC50 (DU-145, DU 145, read-out: IC50): 25.3 µM
IC50 (Daoy, read-out: IC50): 13.6 µM
IC50 (DoTc2-4510, DoTc2 4510, read-out: IC50): 18.1 µM
IC50 (FaDu, upper_aerodigestive_tract, read-out: pIC50 (converted)): 25.7 µM
IC50 (FaDu, read-out: IC50): 25.7 µM
IC50 (HCT-15, HCT-15, read-out: IC50): 11.4 µM
IC50 (HCT-116, HCT 116, read-out: IC50): 16 µM
IC50 (Hs-578T, Hs 578T, read-out: IC50): 14.7 µM
IC50 (J82, J82, read-out: IC50): 19.2 µM
IC50 (Jurkat E6.1, Jurkat E6.1, read-out: IC50): 0.569 µM
IC50 (K562, K-562, read-out: IC50): 15.3 µM
IC50 (KU812, KU812, read-out: IC50): 9.13 µM
IC50 (LNCaP, LNCaP FGC, read-out: IC50): 91.7 µM
IC50 (LS174T, LS 174T, read-out: IC50): 20.3 µM
IC50 (LoVo, read-out: IC50): 16.6 µM
IC50 (MCF7, MCF7, read-out: IC50): 14.7 µM
IC50 (MG-63, MG-63, read-out: IC50): 22.7 µM
IC50 (MIA PaCa-2, MIA PaCa-2, read-out: IC50): 13.1 µM
IC50 (MOLT-4, MOLT-4, read-out: IC50): 4.07 µM
IC50 (MeWo, read-out: IC50): 19.5 µM
IC50 (NCI-H82, NCI-H82, read-out: IC50): 4.84 µM
IC50 (NCI-H460, NCI-H460, read-out: IC50): 32.5 µM
IC50 (OVCAR-3, OVCAR-3, read-out: IC50): 13.7 µM
IC50 (PA1, ovary, read-out: pIC50 (converted)): 2.88 µM
IC50 (PA-1, PA-1, read-out: IC50): 2.88 µM
IC50 (RKO, read-out: IC50): 10.1 µM
IC50 (RPMI-7951, RPMI-7951, read-out: IC50): 14.1 µM
IC50 (RT-4, RT4, read-out: IC50): 33.4 µM
IC50 (SHP77, SHP-77, read-out: IC50): 13.8 µM

Reference: paper PMC11696576, “Next generation thiazolyl ketone inhibitors of cytosolic phospholipase A2 α for targeted cancer therapy” (Nature Communications, 2025)
